In patent publication US9302999B2, “Substituted triazoles as herbicides” (E. I. DU PONT DE NEMOURS AND COMPANY, priority 2012, dated 2016):

What was measured:
Type in all cases: in vivo
[1] = tested on: barley (winter barley, Hordeum vulgare); assay: Test C postemergence: barley
Source text: (§1) At the same time, plants selected from these crop and weed species and also barley (winter barley, Hordeum vulgare), canarygrass (Phalaris minor), chickweed (common chickweed, Stellaria media) windgrass (Apera spica-venti) and deadnettle (henbit deadnettle, Lamium amplexicaule) were planted in pots containing Redi-Earth® planting medium (Scotts Company, 14111 Scottslawn Road, Marysville, Ohio 43041) comprising spaghnum peat moss, vermiculite, wetting agent and starter nutrients and treated with postemergence applications of test chemicals formulated in the same manner. Plants ranged in height from 2 to 18 cm (1- to 4-leaf stage) for postemergence treatments.
(§2) Treated plants and controls were maintained in a greenhouse for 13 to 15 days, after which time all species were compared to controls and visually evaluated. Plant response ratings, summarized in Table C, are based on a scale of 0 to 100 where 0 is no effect and 100 is complete control. A dash (-) response means no test result.

[2] = tested on: bermudagrass (Cynodon dactylon); assay: Test C pre-/postemergence: bermudagrass
Source text: Seeds of plant species selected from blackgrass (Alopecurus myosuroides), bromegrass, downy (downy bromegrass, Bromus tectorum), foxtail, green (green foxtail, Setaria viridis), ryegrass, Italian (Italian ryegrass, Lolium multiflorum), winter wheat (Triticum aestivum), wild oat (Avena fatua), galium (catchweed bedstraw, Galium aparine), bermudagrass (Cynodon dactylon), surinam grass (Brachiaria decumbens), cocklebur (common cocklebur, Xanthium strumarium), corn (Zea mays), large crabgrass (Digitaria sanguinalis), woolly cupgrass (Eriochloa villosa), foxtail, giant (giant foxtail, Setaria faberii), goosegrass (Eleusine indica), johnsongrass (Sorghum halepense), kochia (Kochia scoparia), lambsquarters (Chenopodium album), morningglory (Ipomoea coccinea), nightshade (eastern black nightshade, Solanum ptycanthum), nutsedge, yellow (yellow nutsedge, Cyperus esculentus), pigweed (Amaranthus retroflexus), ragweed (common ragweed, Ambrosia elation), soybean (Glycine max), common (oilseed) sunflower (Helianthus annuus), Russian thistle (Salsola kali) and velvetleaf (Abutilon theophrasti) were planted into a blend of loam soil and sand and treated preemergence with test chemicals formulated in a non-phytotoxic solvent mixture which included a surfactant.
as §1, §2

[3] = tested on: sedge, umbrella (small-flower umbrella sedge Cyperus difformis); assay: Test B flooded paddy: sedge, umbrella; conditions: Flood, applied to paddy water at 2-leaf stage, visually evaluated after 13 to 15 days
Outline: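 Plants were grown to the 2-leaf stage, then pots were flooded to 3 cm above the soil and compounds were applied directly into the paddy water. Water depth was held for the whole test; after 13 to 15 days in a greenhouse, injury was visually rated against untreated controls (0 = no effect, 100 = complete control).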

[4] = tested on: chamomile (scentless chamomile, Matricaria inodora); assay: Test D pre-/postemergence: chamomile
Source text: (§3) Seeds of plant species selected from bluegrass (annual bluegrass, Poa annua), blackgrass (Alopecurus myosuroides), canarygrass (Phalaris minor), chickweed (common chickweed, Stellaria media), galium (catchweed bedstraw, Galium aparine), bromegrass, downy (downy bromegrass, Bromus tectorum), field poppy (Papaver rhoeas), field violet (Viola arvensis), foxtail, green (green foxtail, Setaria viridis), deadnettle (henbit deadnettle, Lamium amplexicaule), ryegrass, Italian (Italian ryegrass, Lolium multiflorum), kochia (Kochia scoparia), lambsquarters (Chenopodium album), oilseed rape (Brassica napus), pigweed (Amaranthus retroflexus), Russian thistle (Salsola iberica), chamomile (scentless chamomile, Matricaria inodora), speedwell (bird's-eye speedwell, Veronica persica), barley, spring (spring barley, Hordeum vulgare), wheat, spring (spring wheat, Triticum aestivum), buckwheat, wild (wild buckwheat, Polygonum convolvulus), mustard, wild (wild mustard, Sinapis arvensis), oat, wild (wild oat, Avena fatua), radish, wild (wild radish, Raphanus raphanistrum), windgrass (Apera spica-venti), barley, winter (winter barley, Hordeum vulgare), and wheat, winter (winter wheat, Triticum aestivum) were planted into a silt loam soil and treated preemergence with test chemicals formulated in a non-phytotoxic solvent mixture which included a surfactant. At the same time, these same crop and weed species were planted in pots containing the planting medium comprising spaghnum peat moss, vermiculite, wetting agent and starter nutrients and treated with postemergence applications of the test chemicals formulated in the same manner. Plants ranged in height from 2 to 18 cm (1- to 4-leaf stage).
as §2, with “controlled growth environment” for “greenhouse”, “14” for “13”, “21 days” for “15 days,”, “D,” for “C,”

[5] = tested on: buckwheat, wild (wild buckwheat, Polygonum convolvulus); assay: Test D pre-/postemergence: buckwheat, wild
Source text: as §3
as §2, with “controlled growth environment” for “greenhouse”, “14” for “13”, “21 days” for “15 days,”, “D,” for “C,”

[6] = tested on: Russian thistle (Salsola iberica); assay: Test D pre-/postemergence: Russian thistle
Source text: as §3
as §2, with “controlled growth environment” for “greenhouse”, “14” for “13”, “21 days” for “15 days,”, “D,” for “C,”

[7] = tested on: ryegrass, Italian (Italian ryegrass, Lolium multiflorum); assay: Test D pre-/postemergence: ryegrass, Italian
Source text: as §3
as §2, with “controlled growth environment” for “greenhouse”, “14” for “13”, “21 days” for “15 days,”, “D,” for “C,”

[8] = 31 g ai/ha, scale 0 to 100 (0 no effect, 100 complete control)
[9] = 62 g ai/ha, scale 0 to 100 (0 no effect, 100 complete control)
[10] = 125 g ai/ha, scale 0 to 100, 0 no effect, 100 complete control
[11] = Postemergence, 31 g ai/ha, scale 0 to 100 (0 no effect, 100 complete control)
[12] = Postemergence, 62 g ai/ha, scale 0 to 100 (0 no effect, 100 complete control)
[13] = Postemergence, 125 g ai/ha, scale 0 to 100, 0 no effect, 100 complete control
[14] = Postemergence, 250 g ai/ha, scale 0 to 100 (0 no effect, 100 complete control)
[15] = Postemergence, 16 g ai/ha, scale 0 to 100
[16] = Preemergence, 16 g ai/ha, scale 0 to 100 (0 no effect, 100 complete control)
[17] = Preemergence, 31 g ai/ha, scale 0 to 100 (0 no effect, 100 complete control)
[18] = Preemergence, 62 g ai/ha, scale 0 to 100
[19] = Preemergence, 125 g ai/ha, scale 0 to 100
[20] = Preemergence, 250 g ai/ha, scale 0 to 100
[21] = Postemergence, 250 g ai/ha, scale 0 to 100

Compound: Cc1nn(-c2ccc(C(F)(F)F)cc2)nc1Cc1cccc(C(F)(F)F)c1 [Compound 124]
- Plant response rating, Barley ([1]; 16 g ai/ha, scale 0 to 100, 0 no effect, 100 complete control): 5
- Plant response rating, Barley [1, 8]: 15
- Plant response rating, Barley [1, 9]: 30
- Plant response rating, Barley [1, 10]: 30
- Plant response rating, Bermudagrass ([2]; Postemergence, 16 g ai/ha, scale 0 to 100, 0 no effect, 100 complete control): 5
- Plant response rating, Bermudagrass [2, 11]: 25
- Plant response rating, Bermudagrass [2, 12]: 45
- Plant response rating, Bermudagrass [2, 13]: 60

Compound: CCCc1nn(-c2ccc(F)cc2)nc1Cc1ccnc(C(F)(F)F)c1 [Compound 153]
- Plant response rating, Sedge, Umbrella (0 to 100 scale, 0 is no effect, 100 is complete control) ([3]; 250 g ai/ha): 90

Compound: Cc1nn(-c2ccc(F)cc2)nc1Cc1ccnc(C(F)(F)F)c1 [Compound 16, 4-[[2-(4-fluorophenyl)-5-methyl-2H-1,2,3-triazol-4-yl]methyl]-2-(trifluoromethyl)pyridine]
- Plant response rating: Chamomile [4, 11]: 0
- Plant response rating: Chamomile [4, 12]: 0
- Plant response rating: Chamomile [4, 13]: 5
- Plant response rating: Chamomile [4, 14]: 10
- Plant response rating, Chamomile [4, 15]: 0
- Plant response rating, Chamomile [4, 16]: 0
- Plant response rating, Chamomile [4, 17]: 0
- Plant response rating, Chamomile [4, 18]: 25
- Plant response rating, Chamomile [4, 19]: 70
- Plant response rating, Chamomile [4, 20]: 100
- Plant response rating, Barley [1, 9]: 35
- Plant response rating, Barley [1, 10]: 45
- Plant response rating, Barley ([1]; 250 g ai/ha, scale 0 to 100): 45
- Plant response rating: Buckwheat, Wild [5, 11]: 0
- Plant response rating: Buckwheat, Wild [5, 12]: 10
- Plant response rating: Buckwheat, Wild [5, 13]: 20
- Plant response rating: Buckwheat, Wild [5, 14]: 50
- Plant response rating, Buckwheat, Wild [5, 15]: 0
- Plant response rating, Buckwheat, Wild [5, 16]: 0
- Plant response rating, Buckwheat, Wild [5, 17]: 0
- Plant response rating, Buckwheat, Wild [5, 18]: 0
- Plant response rating, Buckwheat, Wild [5, 19]: 0
- Plant response rating, Buckwheat, Wild [5, 20]: 20
- Plant response rating, Bermudagrass [2, 11]: 5
- Plant response rating, Bermudagrass [2, 12]: 5
- Plant response rating, Bermudagrass [2, 13]: 15
- Plant response rating, Bermudagrass [2, 21]: 65
- Plant response rating, Bermudagrass ([2]; Preemergence, 31 g ai/ha, scale of 0 to 100, 0 is no effect, 100 is complete control): 5
- Plant response rating, Bermudagrass ([2]; Preemergence, 62 g ai/ha, scale 0 to 100, 0 no effect, 100 complete control): 25
- Plant response rating, Bermudagrass ([2]; Preemergence, 125 g ai/ha, scale 0 to 100, 0 no effect, 100 complete control): 75
- Plant response rating, Bermudagrass ([2]; Preemergence, 250 g ai/ha, scale 0 to 100, 0 no effect, 100 complete control): 75
- Plant response rating: Russian Thistle [6, 11]: 95
- Plant response rating: Russian Thistle [6, 12]: 100
- Plant response rating: Russian Thistle [6, 13]: 100
- Plant response rating: Russian Thistle [6, 14]: 100
- Plant response rating, Russian Thistle [6, 15]: 90
- Plant response rating, Russian Thistle [6, 16]: 0
- Plant response rating, Russian Thistle [6, 17]: 35
- Plant response rating, Russian Thistle [6, 18]: 40
- Plant response rating, Russian Thistle [6, 20]: 90
- Plant response rating: Ryegrass, Italian [7, 11]: 20
- Plant response rating: Ryegrass, Italian [7, 12]: 25
- Plant response rating: Ryegrass, Italian [7, 13]: 30
- Plant response rating: Ryegrass, Italian [7, 14]: 35
- Plant response rating, Ryegrass, Italian [7, 15]: 10
- Plant response rating, Ryegrass, Italian [7, 16]: 0
- Plant response rating, Ryegrass, Italian [7, 17]: 0
- Plant response rating, Ryegrass, Italian [7, 18]: 10
- Plant response rating, Ryegrass, Italian [7, 19]: 60
- Plant response rating, Ryegrass, Italian [7, 20]: 60

Compound: CCOc1nn(-c2ccc(Br)cc2)nc1Cc1ccnc(C(F)(F)F)c1 [Compound 189]
- Plant response rating, Sedge, Umbrella (0 to 100 scale, 0 is no effect, 100 is complete control) ([3]; 125 g ai/ha): 0

Compound: CCCc1nn(-c2ccc(C(F)(F)F)c(F)c2)nc1Oc1ccnc(C(F)(F)F)c1 [Compound 185]
- Plant response rating, Sedge, Umbrella (0 to 100 scale, 0 is no effect, 100 is complete control) ([3]; 250 g ai/ha): 95

Compound: Cc1nn(-c2ccc(C(F)(F)F)c(F)c2)nc1Cc1ccnc(C(F)(F)F)c1 [Compound 162]
- Plant response rating, Sedge, Umbrella (0 to 100 scale, 0 is no effect, 100 is complete control) ([3]; 125 g ai/ha): 80

Compound: Cc1nn(-c2ccnc(C(F)(F)F)c2)nc1Cc1ccnc(C(F)(F)F)c1 [Compound 137]
- Plant response rating: Chamomile [4, 11]: 10
- Plant response rating: Chamomile [4, 12]: 15
- Plant response rating: Chamomile [4, 13]: 20
- Plant response rating: Chamomile [4, 14]: 40
- Plant response rating, Chamomile [4, 15]: 0
- Plant response rating, Barley [1, 8]: 10
- Plant response rating, Barley [1, 9]: 10
- Plant response rating, Barley [1, 10]: 30
- Plant response rating, Barley ([1]; 250 g ai/ha, scale 0 to 100): 35
- Plant response rating: Buckwheat, Wild [5, 11]: 30
- Plant response rating: Buckwheat, Wild [5, 12]: 65
- Plant response rating: Buckwheat, Wild [5, 13]: 65
- Plant response rating: Buckwheat, Wild [5, 14]: 80
- Plant response rating, Buckwheat, Wild [5, 15]: 30
- Plant response rating, Bermudagrass [2, 11]: 30
- Plant response rating, Bermudagrass [2, 12]: 30
- Plant response rating, Bermudagrass [2, 21]: 45
- Plant response rating, Sedge, Umbrella (0 to 100 scale, 0 is no effect, 100 is complete control) ([3]; 250 g ai/ha): 70
- Plant response rating: Russian Thistle [6, 12]: 85
- Plant response rating: Russian Thistle [6, 13]: 85
- Plant response rating: Russian Thistle [6, 14]: 90
- Plant response rating, Russian Thistle [6, 15]: 30
- Plant response rating: Ryegrass, Italian [7, 11]: 10
- Plant response rating: Ryegrass, Italian [7, 12]: 25
- Plant response rating: Ryegrass, Italian [7, 13]: 35
- Plant response rating: Ryegrass, Italian [7, 14]: 40
- Plant response rating, Ryegrass, Italian [7, 15]: 0

Compound: CCc1nn(-c2ccc(F)cc2)nc1Oc1ccnc(C(F)(F)F)c1 [Compound 166]
- Plant response rating, Sedge, Umbrella (0 to 100 scale, 0 is no effect, 100 is complete control) ([3]; 125 g ai/ha): 70
